According to patent US9359311B2, “Substituted aromatic oligomers” (NEUROSCIOS GMBH, priority 2011, dated 2016):

molecular target: T1, biotinylated Aβ1-42 (Homo sapiens, UniProt P05067); assay: Inhibition of Abeta oligomerisation (biotinylated Aβ1-42, neutravidin plate, streptavidin-HRP); type: biochemical; settings: inhibition of Aβ1-42 aggregation, approximately 12 nM Aβ1-42, PBS pH 7.4, 2% DMSO, 30 min RT
T1 construct: To assure monomerisation of biotinylated Aβ1-42 (Anaspec #23523-0.5) the peptide was thoroughly monomerised; purchased Anaspec 23523-0.5
T1 sequence (P05067 672-713 limits assumed): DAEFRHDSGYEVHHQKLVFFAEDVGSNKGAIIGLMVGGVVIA

| IC50 | Structure (SMILES) |
| --- | --- |
| 3.98 µM | CC(=O)NCCc1cc(-c2ccc(C(=O)O)s2)sc1-c1ccc(-c2sc(-c3ccc(C(=O)O)s3)cc2CCNC(C)=O)s1 [Example 7, 5-(5-{5-[5-(5-Carboxythiophen-2-yl)-3-(2-acetamidoethyl)thiophen-2-yl]thiophen-2-yl}-4-(2-acetamidoethyl)thiophen-2-yl)thiophene-2-carboxylic acid] |
| 15.8 µM | NCCc1ccsc1-c1ccc(-c2sccc2CCN)s1 [Example 8, 2-(2-{5-[3-(2-Aminoethyl)thiophen-2-yl]thiophen-2-yl}thiophen-3-yl)ethan-1-amine] |
| 7.94 µM | O=C(O)Cc1cc(-c2cccc(C(=O)O)c2)sc1-c1ccc(-c2sc(-c3cccc(C(=O)O)c3)cc2CC(=O)O)s1 [Example 10, 3-[4-(Carboxymethyl)-5-{5-[3-(carboxymethyl)-5-(3-carboxyphenyl)thiophen-2-yl]thiophen-2-yl}thiophen-2-yl]benzoic acid] |
| 12.6 µM | O=C(O)Cc1cc(-c2ccccc2C(=O)O)sc1-c1ccc(-c2sc(-c3ccccc3C(=O)O)cc2CC(=O)O)s1 [Example 11, 2-[4-(Carboxymethyl)-5-{5-[3-(carboxymethyl)-5-(2-carboxyphenyl)thiophen-2-yl]thiophen-2-yl}thiophen-2-yl]benzoic acid] |
| 1.58 µM | O=C(O)Cc1cc(-c2cccs2)sc1-c1ccc(-c2sc(-c3ccc(C(=O)O)s3)cc2CC(=O)O)s1 [Example 12, 5-[4-(Carboxymethyl)-5-{5-[3-(carboxymethyl)-5-(thiophen-2-yl)thiophen-2-yl]thiophen-2-yl}thiophen-2-yl]thiophene-2-carboxylic acid] |
| 7.94 µM | O=C(O)Cc1cc(-c2cccnc2)sc1-c1ccc(-c2sc(-c3ccc(C(=O)O)s3)cc2CC(=O)O)s1 [Example 13, 5-[4-(Carboxymethyl)-5-{5-[3-(carboxymethyl)-5-(pyridin-3-yl)thiophen-2-yl]thiophen-2-yl}thiophen-2-yl]thiophene-2-carboxylic acid] |
| 2 µM | O=C(O)Cc1cc(-c2cccc(C(=O)O)c2)sc1-c1ccc(-c2sc(-c3ccc(C(=O)O)s3)cc2CC(=O)O)s1 [Example 14, 5-[4-(Carboxymethyl)-5-{5-[3-(carboxymethyl)-5-(3-carboxyphenyl)thiophen-2-yl]thiophen-2-yl}thiophen-2-yl]thiophene-2-carboxylic acid] |
| 50.1 µM | O=C(O)Cc1cc(-c2cccnc2)sc1-c1ccc(-c2sc(-c3cccnc3)cc2CC(=O)O)s1 [Example 15, 2-(2-{5-[3-(Carboxymethyl)-5-(pyridin-3-yl)thiophen-2-yl]thiophen-2-yl}-5-(pyridin-3-yl)thiophen-3-yl)acetic acid] |
| 3.98 µM | O=C(O)Cc1cc(-c2ccc(-c3ccc(C(=O)O)cc3)s2)sc1-c1ccc(-c2sc(-c3ccc(-c4ccc(C(=O)O)cc4)s3)cc2CC(=O)O)s1 [Example 19, 4-{5-[4-(Carboxymethyl)-5-{5-[3-(carboxymethyl)-5-[5-(4-carboxyphenyl)thiophen-2-yl]thiothiophen-2-yl]thiophen-2-yl}thiophen-2-yl]thiophen-2-yl}benzoic acid] |
| 1 µM | O=C(O)Cc1cc(-c2ccc(-c3cccc(C(=O)O)c3)s2)sc1-c1ccc(-c2sc(-c3ccc(-c4cccc(C(=O)O)c4)s3)cc2CC(=O)O)s1 [Example 20, 3-{5-[4-(Carboxymethyl)-5-{5-[3-(carboxymethyl)-5-[5-(3-carboxyphenyl)thiophen-2-yl]thiophen-2-yl]thiophen-2-yl}thiophen-2-yl]thiophen-2-yl}benzoic acid] |
| 2.51 µM | CS(=O)(=O)c1cccc(-c2cc(CC(=O)O)c(-c3ccc(-c4sc(-c5cccc(S(C)(=O)=O)c5)cc4CC(=O)O)s3)s2)c1 [Example 22, 2-(2-{5-[3-(Carboxymethyl)-5-(3-methanesulfonylphenyl)thiophen-2-yl]thiophen-2-yl}-5-(3-methanesulfonylphenyl)thiophen-3-yl)acetic acid] |
| 3.16 µM | CNS(=O)(=O)c1ccc(-c2cc(CC(=O)O)c(-c3ccc(-c4sc(-c5ccc(S(=O)(=O)NC)cc5)cc4CC(=O)O)s3)s2)cc1 [Example 23, 2-(2-{5-[3-(Carboxymethyl)-5-[4-(methylsulfamoyl)phenyl]thiophen-2-yl]thiophen-2-yl}-5-[4-(methylsulfamoyl)phenyl]thiophen-3-yl)acetic acid] |
| 10 µM | C[S+]([O-])c1cccc(-c2cc(CC(=O)O)c(-c3ccc(-c4sc(-c5cccc([S+](C)[O-])c5)cc4CC(=O)O)s3)s2)c1 (stereo not shown) [Example 24, 2-(2-{5-[3-(Carboxymethyl)-5-(3-methanesulfinylphenyl)thiophen-2-yl]thiophen-2-yl}-5-(3-methanesulfinylphenyl)thiophen-3-yl)acetic acid] |
| 0.794 µM | O=C(O)Cc1ccsc1-c1ccc(-c2sc(-c3cccc(-c4cc(CC(=O)O)c(-c5ccc(-c6sccc6CC(=O)O)s5)s4)c3)cc2CC(=O)O)s1 [Example 34, 2-(2-{5-[3-(Carboxymethyl)-5-{3-[4-(carboxymethyl)-5-{5-[3-(carboxymethyl)thiophen-2-yl]thiophen-2-yl}thiophen-2-yl]phenyl}thiophen-2-yl]thiophen-2-yl}thiophen-3-yl)acetic acid] |
| 5.01 µM | CS(=O)(=O)c1ccc(-c2sc(-c3ccc(-c4cc(CC(=O)O)c(-c5ccc(S(C)(=O)=O)cc5)s4)s3)cc2CC(=O)O)cc1 [Example 36, 2-(5-{5-[4-(Carboxymethyl)-5-(4-methanesulfonylphenyl)thiophen-2-yl]thiophen-2-yl}-2-(4-methanesulfonylphenyl)thiophen-3-yl)acetic acid] |
| 5.01 µM | CS(=O)(=O)c1ccc(-c2sc(-c3ccc(-c4cc(CC(=O)O)c(-c5ccc(S(C)(=O)=O)cc5)s4)cc3)cc2CC(=O)O)cc1 [Example 37, 2-(5-{4-[4-(Carboxymethyl)-5-(4-methanesulfonylphenyl)thiophen-2-yl]phenyl}-2-(4-methanesulfonylphenyl)thiophen-3-yl)acetic acid] |
| 1.58 µM | O=C(O)Cc1ccsc1-c1ccc(-c2sc(-c3ccc(-c4cc(CC(=O)O)c(-c5ccc(-c6sccc6CC(=O)O)cc5)s4)cc3)cc2CC(=O)O)cc1 [Example 38, 2-(2-{4-[3-(Carboxymethyl)-5-{4-[4-(carboxymethyl)-5-{4-[3-(carboxymethyl)thiophen-2-yl]phenyl}thiophen-2-yl]phenyl}thiophen-2-yl]phenyl}thiophen-3-yl)acetic acid] |
| 1.26 µM | O=C(O)Cc1ccsc1-c1ccc(-c2sc(-c3ccc(-c4cc(CC(=O)O)c(-c5ccc(-c6sccc6CC(=O)O)cc5)s4)s3)cc2CC(=O)O)cc1 [Example 40, 2-(5-{5-[4-(Carboxymethyl)-5-{4-[3-(carboxymethyl)thiophen-2-yl]phenyl}thiophen-2-yl]thiophen-2-yl}-2-{4-[3-(carboxymethyl)thiophen-2-yl]phenyl}thiophen-3-yl)acetic acid] |
| 0.794 µM | CS(=O)(=O)c1ccc(-c2cc(CCN)c(-c3ccc(-c4sc(-c5ccc(S(C)(=O)=O)cc5)cc4CCN)s3)s2)cc1 [Example 41, 2-(2-{5-[3-(2-Aminoethyl)-5-(4-methanesulfonylphenyl)thiophen-2-yl]thiophen-2-yl}-5-(4-methanesulfonylphenyl)thiophen-3-yl)ethan-1-amine] |
